Source: ChEMBL document CHEMBL1201862, “PubChem BioAssay data set” (2004)
Calls of active or inactive are those of the source.

Experiments:
[1] = target: T1, Polyadenylate-binding protein 1 (Homo sapiens, UniProt P11940); test: PABP inhibition in translation initiation, SAR follow-up (AID 435018); assay type: functional
[2] = target: T1, Polyadenylate-binding protein 1; test: blockers of PABP interaction with poly(A) – biochemical, fluorescence polarization, […] (AID 2014)
[3] = target: T2, Eukaryotic translation initiation factor 4H (Homo sapiens, UniProt Q15056); test: inhibitors of translation initiation factor eIF4H – SAR follow-up (AID 435011); assay type: functional
[4] = target: T2, Eukaryotic translation initiation factor 4H; test: eIF4H binding inhibition – biochemical, uHTS, fluorescence polarization, translation initiation inhibitor project, primary screen (AID 2012)
[5] = target: X-box-binding protein 1 (Homo sapiens, UniProt P17861); assay type: functional, Cricetulus griseus;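 also: confirmatory dose-response counter-screen serving a CHOP assay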
Sequence of X-box-binding protein 1 (P17861 whole entry): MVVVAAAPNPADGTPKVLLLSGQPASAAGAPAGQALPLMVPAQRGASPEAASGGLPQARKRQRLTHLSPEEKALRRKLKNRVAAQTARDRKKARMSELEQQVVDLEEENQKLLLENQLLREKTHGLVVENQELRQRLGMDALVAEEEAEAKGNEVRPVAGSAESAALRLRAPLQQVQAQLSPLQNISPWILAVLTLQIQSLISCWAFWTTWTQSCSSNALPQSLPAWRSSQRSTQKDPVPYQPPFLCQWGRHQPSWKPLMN

[6] = target: DNA dC->dU-editing enzyme APOBEC-3G (Homo sapiens, UniProt Q9HC16); assay type: functional;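 also: Dose-response counterscreen measuring inhibition of APOBEC3G DNA deaminase activity, run while confirming APOBEC3A inhibitors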
Sequence of DNA dC->dU-editing enzyme APOBEC-3G (Q9HC16 whole entry): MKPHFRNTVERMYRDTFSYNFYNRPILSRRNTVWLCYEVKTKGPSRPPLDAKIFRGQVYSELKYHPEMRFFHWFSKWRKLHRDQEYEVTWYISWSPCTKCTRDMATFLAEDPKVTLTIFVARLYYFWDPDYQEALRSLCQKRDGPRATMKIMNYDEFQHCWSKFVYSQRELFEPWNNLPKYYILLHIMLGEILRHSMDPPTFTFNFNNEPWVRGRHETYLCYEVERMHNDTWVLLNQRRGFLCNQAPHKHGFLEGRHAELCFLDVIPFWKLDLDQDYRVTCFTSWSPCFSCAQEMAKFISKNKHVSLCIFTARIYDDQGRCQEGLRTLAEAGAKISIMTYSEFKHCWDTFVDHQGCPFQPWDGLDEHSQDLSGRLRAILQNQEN

[7] = target: DNA dC->dU-editing enzyme APOBEC-3A (Homo sapiens, UniProt P31941); test: Dose Response confirmation of small molecule APOBEC3A DNA Deaminase Inhibitors via a fluorescence-based single-stranded DNA deaminase assay. [Related pubchem assays (depositor defined):AID493011, AID493024]; assay type: functional
Sequence of DNA dC->dU-editing enzyme APOBEC-3A (P31941 whole entry): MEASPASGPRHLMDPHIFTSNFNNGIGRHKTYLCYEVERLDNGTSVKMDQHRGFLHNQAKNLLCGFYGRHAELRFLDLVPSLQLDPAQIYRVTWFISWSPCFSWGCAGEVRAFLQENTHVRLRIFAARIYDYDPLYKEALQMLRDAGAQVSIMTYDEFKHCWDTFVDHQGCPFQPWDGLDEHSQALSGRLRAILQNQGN

[8] = target: T3, Alkaline phosphatase, tissue-nonspecific isozyme (Homo sapiens, UniProt P05186)
T3 sequence (P05186 whole entry): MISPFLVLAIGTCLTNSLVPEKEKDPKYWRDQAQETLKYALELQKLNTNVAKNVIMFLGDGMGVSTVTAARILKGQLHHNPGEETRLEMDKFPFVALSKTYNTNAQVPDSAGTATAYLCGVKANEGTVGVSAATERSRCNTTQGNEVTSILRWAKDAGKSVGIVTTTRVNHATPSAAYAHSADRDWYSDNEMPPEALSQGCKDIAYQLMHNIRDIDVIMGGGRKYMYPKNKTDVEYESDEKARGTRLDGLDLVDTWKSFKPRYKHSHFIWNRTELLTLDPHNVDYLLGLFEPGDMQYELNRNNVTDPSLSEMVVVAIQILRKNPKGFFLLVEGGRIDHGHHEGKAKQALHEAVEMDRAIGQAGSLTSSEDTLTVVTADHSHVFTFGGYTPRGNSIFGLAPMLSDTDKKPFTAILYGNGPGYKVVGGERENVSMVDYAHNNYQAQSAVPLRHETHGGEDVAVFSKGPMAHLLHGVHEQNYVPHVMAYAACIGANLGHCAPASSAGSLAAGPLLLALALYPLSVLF

[9] = target: Intestinal-type alkaline phosphatase (Mus musculus, UniProt P24822); test: PubChem AID 488785; assay type: functional
Sequence of Intestinal-type alkaline phosphatase (Mus musculus, UniProt P24822) (P24822 whole entry): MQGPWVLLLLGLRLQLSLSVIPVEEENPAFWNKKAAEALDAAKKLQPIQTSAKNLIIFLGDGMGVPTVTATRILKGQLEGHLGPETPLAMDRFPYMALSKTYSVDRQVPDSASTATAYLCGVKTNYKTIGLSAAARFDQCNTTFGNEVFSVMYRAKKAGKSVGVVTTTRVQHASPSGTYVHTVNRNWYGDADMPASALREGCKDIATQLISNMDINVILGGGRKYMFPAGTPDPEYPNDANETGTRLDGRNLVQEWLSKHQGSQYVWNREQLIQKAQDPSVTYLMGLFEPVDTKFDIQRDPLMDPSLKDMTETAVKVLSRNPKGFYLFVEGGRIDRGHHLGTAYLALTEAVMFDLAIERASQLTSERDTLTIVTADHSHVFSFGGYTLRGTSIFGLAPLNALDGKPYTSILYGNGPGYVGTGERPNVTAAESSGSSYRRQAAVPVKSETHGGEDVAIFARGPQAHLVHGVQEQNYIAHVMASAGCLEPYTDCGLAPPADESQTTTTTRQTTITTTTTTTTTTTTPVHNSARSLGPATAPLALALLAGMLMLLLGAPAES

[10] = loss of viability in HepG2 cells – cell-based, CellTiter-Glo, cherry-picked, cytotoxicity control for Shn3 inhibitor project, dose response (AID 624134); assay type: functional
[11] = target: Intestinal-type alkaline phosphatase (Homo sapiens, UniProt P09923); test: inhibition of human intestinal alkaline phosphatase – biochemical, dose response (AID 488876); assay type: functional
[12] = reduction of Shn3 3'UTR-driven luciferase in osteoblasts – cell-based, Clone20 osteoblasts, firefly luciferase, cherry-picked, dose response (AID 624132); assay type: functional;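 also: firefly luciferase luminescence from reporter carrying the Shn3 3'UTR in osteoblasts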
[13] = non-specific 3'UTR reporter inhibition in Clone20-Shn3RL – cell-based, Renilla luciferase, cherry-picked, counter-screen for Shn3 inhibitor project, dose response (AID 624133); assay type: functional
[14] = target: T3, Alkaline phosphatase, tissue-nonspecific isozyme; test: TNAP enzyme inhibition by screening hits, dose response, selectivity assay for mouse IAP inhibitor project, biochemical, human TNAP, uHTS hits (AID 488906); assay type: functional
[15] = target: DNA (cytosine-5)-methyltransferase 1 (Homo sapiens, UniProt P26358); test: inhibition of DNA methylation by DNMT1 – biochemical, fluorescent molecular beacon, confirmation (AID 602386); assay type: functional
Sequence of DNA (cytosine-5)-methyltransferase 1 (P26358 whole entry): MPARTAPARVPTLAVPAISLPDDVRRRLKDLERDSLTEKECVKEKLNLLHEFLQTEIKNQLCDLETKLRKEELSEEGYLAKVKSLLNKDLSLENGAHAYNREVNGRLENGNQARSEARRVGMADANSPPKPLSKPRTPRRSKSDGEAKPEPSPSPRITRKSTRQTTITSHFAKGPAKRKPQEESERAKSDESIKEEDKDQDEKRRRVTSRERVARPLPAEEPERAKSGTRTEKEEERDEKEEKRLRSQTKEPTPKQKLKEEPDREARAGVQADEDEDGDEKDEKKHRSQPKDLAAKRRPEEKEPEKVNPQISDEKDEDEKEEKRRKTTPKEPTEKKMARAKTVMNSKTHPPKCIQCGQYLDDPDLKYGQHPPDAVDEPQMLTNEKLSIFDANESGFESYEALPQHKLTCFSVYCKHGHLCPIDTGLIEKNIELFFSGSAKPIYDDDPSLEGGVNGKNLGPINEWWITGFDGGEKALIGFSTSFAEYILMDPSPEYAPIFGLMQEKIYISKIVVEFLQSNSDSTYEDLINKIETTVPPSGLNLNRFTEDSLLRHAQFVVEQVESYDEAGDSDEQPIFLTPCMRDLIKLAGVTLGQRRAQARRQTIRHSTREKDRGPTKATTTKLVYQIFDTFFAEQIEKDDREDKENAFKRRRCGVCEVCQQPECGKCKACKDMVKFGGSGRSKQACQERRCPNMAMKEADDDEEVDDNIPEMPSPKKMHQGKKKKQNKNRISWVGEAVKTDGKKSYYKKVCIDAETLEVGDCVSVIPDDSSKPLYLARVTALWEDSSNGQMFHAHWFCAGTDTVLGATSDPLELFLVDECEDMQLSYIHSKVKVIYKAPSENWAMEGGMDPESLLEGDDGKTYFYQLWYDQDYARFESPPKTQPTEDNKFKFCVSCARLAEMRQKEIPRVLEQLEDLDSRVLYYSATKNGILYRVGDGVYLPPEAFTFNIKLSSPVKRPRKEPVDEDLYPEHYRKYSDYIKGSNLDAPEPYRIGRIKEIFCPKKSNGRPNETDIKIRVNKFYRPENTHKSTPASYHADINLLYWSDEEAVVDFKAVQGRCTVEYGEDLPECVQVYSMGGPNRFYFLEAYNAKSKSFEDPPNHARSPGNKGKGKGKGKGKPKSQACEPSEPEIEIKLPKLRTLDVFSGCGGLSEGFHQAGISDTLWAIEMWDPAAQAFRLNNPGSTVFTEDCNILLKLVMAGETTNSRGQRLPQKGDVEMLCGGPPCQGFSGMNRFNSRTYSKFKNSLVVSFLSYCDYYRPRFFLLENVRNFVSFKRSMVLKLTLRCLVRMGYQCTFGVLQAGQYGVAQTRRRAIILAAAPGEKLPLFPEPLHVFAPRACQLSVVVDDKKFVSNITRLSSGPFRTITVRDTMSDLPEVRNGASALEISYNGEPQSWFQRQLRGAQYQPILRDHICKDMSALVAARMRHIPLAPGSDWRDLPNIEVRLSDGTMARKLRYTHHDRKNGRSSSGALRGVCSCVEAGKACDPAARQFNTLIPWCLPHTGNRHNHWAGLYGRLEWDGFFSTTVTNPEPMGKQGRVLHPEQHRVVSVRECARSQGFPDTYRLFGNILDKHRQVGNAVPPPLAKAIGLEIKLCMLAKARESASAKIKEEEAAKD

[16] = target: T4, Histone-lysine N-methyltransferase NSD2 (Homo sapiens, UniProt O96028); assay type: biochemical
T4 sequence (O96028 whole entry): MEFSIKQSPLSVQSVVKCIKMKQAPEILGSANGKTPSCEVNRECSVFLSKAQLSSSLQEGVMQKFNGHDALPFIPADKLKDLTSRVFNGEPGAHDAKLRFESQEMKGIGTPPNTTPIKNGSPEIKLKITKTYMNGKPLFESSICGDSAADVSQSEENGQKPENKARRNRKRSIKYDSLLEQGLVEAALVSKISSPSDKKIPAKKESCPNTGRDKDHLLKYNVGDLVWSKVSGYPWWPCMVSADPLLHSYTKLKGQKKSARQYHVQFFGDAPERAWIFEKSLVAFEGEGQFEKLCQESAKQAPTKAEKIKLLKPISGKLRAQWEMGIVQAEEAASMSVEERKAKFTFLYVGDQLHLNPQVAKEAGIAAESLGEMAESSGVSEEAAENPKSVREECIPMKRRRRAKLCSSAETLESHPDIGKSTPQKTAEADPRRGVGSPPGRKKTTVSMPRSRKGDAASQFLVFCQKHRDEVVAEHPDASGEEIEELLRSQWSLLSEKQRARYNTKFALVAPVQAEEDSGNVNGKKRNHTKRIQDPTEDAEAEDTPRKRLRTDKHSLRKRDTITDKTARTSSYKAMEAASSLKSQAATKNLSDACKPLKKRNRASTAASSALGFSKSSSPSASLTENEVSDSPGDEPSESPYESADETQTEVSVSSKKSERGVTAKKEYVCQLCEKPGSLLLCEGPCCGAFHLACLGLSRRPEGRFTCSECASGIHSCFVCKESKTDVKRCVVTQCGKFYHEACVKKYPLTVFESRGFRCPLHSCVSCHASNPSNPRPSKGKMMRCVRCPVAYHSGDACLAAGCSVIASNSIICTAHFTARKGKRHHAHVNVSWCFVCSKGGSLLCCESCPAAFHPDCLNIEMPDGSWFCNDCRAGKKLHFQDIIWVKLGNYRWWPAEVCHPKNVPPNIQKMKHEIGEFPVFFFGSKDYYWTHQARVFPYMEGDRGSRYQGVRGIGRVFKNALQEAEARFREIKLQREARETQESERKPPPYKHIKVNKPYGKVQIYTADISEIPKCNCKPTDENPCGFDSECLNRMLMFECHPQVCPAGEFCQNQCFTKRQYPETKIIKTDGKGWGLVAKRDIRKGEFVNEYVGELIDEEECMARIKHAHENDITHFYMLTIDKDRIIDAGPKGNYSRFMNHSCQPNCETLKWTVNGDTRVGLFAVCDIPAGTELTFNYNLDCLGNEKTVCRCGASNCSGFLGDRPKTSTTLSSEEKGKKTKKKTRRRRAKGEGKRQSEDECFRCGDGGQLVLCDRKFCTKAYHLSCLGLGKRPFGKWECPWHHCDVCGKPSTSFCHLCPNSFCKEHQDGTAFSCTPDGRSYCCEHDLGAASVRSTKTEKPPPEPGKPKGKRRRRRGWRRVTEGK

[17] = target: Leucine aminopeptidase (Plasmodium falciparum 3D7, UniProt Q8IL11); test: P. falciparum M17LAP inhibitors, primary screen, biochemical, fluorogenic H-Leu-NHMec substrate, 1536-well (AID 1619); assay type: functional
Sequence of Leucine aminopeptidase (Q8IL11 whole entry): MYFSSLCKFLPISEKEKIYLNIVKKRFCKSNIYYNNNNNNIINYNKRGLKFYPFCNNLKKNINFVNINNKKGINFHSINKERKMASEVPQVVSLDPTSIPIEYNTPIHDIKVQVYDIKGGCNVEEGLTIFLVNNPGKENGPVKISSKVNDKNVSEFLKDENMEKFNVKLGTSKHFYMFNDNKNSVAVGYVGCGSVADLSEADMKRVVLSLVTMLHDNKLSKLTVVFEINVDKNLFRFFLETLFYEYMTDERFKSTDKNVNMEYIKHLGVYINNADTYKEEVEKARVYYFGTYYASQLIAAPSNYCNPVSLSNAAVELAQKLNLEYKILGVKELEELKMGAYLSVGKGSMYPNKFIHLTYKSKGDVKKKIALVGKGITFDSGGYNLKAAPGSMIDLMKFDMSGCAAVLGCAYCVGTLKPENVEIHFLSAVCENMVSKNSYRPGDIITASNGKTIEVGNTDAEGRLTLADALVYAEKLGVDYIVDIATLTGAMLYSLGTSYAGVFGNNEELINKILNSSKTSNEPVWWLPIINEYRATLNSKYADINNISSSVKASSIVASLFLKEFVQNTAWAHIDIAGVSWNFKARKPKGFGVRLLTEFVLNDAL

[18] = target: T5, Long-chain-fatty-acid--AMP ligase FadD28 (Mycobacterium tuberculosis, UniProt P9WQ59); test: Fluorescence polarization aasay to screen for inhibitors that compete for the binding of FadD28 to a bisubstrate Measured in Biochemical System Using Plate Reader - 2147-01_Inhibitor_Dose_CherryPick_Activity.; assay type: functional, Mycobacterium tuberculosis H37Rv
T5 sequence (P9WQ59 whole entry): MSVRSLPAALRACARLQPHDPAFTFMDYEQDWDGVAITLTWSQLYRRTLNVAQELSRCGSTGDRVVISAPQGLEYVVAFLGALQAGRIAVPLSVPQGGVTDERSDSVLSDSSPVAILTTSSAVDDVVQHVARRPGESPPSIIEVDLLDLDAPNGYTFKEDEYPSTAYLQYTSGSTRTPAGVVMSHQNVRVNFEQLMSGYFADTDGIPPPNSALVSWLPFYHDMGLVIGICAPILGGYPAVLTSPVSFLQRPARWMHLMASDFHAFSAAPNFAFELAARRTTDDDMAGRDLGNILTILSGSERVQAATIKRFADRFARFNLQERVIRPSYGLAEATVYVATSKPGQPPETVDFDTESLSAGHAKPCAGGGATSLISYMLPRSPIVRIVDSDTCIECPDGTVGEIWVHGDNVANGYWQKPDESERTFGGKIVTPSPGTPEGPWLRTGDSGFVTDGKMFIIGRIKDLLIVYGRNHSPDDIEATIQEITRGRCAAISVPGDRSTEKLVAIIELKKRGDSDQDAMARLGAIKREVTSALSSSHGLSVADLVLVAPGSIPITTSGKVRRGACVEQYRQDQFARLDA

[19] = target: T6, ORF 73 (Human herpesvirus 8, UniProt O40947); test: KSHV LANA DNA-binding disruption – biochemical, fluorescence polarization, cherry-picked samples, dose response (AID 504725); set-up: species or system Human gammaherpesvirus 8;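 also: fluorescence polarization of a labeled DNA duplex reporting LANA DNA binding; potency is for inhibitors that block LANA binding to the DNA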
T6 sequence (O40947 whole entry): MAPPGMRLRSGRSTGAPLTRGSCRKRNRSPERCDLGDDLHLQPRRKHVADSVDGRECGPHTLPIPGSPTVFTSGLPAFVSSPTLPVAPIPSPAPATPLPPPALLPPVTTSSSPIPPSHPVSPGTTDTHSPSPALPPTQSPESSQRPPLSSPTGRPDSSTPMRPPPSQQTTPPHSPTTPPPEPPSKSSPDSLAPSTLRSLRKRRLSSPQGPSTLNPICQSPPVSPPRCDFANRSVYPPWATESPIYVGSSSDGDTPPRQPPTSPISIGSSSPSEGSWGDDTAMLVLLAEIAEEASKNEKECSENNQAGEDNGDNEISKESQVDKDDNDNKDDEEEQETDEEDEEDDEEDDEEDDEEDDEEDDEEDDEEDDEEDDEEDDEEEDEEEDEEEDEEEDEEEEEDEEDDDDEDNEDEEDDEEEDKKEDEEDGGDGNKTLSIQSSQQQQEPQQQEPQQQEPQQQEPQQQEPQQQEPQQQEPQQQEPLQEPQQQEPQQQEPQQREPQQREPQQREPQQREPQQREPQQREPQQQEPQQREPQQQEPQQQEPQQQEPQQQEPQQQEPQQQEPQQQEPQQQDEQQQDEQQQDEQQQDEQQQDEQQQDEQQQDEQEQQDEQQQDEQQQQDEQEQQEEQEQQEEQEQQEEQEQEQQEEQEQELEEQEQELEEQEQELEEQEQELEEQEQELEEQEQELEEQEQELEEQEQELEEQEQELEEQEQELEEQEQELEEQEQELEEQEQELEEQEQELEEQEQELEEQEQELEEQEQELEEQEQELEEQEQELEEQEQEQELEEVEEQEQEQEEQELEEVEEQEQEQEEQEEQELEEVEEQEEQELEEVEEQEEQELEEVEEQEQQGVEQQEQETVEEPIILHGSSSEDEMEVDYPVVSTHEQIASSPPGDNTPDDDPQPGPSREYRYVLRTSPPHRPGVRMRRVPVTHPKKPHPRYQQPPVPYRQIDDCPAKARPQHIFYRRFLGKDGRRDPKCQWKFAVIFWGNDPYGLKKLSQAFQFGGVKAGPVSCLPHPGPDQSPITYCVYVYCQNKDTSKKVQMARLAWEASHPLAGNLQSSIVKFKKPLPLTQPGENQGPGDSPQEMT

[20] = target: T7, Carboxy-terminal domain RNA polymerase II polypeptide A small phosphatase 1 (Homo sapiens, UniProt Q9GZU7); test: CTDSP1 inhibitors, concentration-response, biochemical, absorbance readout, ultra-high-throughput screen actives (AID 540297); assay type: functional
T7 sequence (Q9GZU7 whole entry): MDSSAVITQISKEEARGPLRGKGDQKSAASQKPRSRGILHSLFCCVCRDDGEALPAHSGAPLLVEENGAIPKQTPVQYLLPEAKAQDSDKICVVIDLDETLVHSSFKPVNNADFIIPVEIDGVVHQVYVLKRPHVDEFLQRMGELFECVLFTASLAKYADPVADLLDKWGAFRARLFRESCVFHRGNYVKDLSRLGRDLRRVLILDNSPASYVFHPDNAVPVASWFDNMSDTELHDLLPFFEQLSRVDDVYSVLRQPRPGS

[21] = target: Bifunctional protein GlmU (Mycobacterium tuberculosis, UniProt P9WMN3); test: Inhibitors of Mycobacterial Glucosamine-1-phosphate acetyl transferase (GlmU). Secondary screen.; set-up: species or system Mycobacterium tuberculosis H37Rv
Sequence of Bifunctional protein GlmU (P9WMN3 whole entry): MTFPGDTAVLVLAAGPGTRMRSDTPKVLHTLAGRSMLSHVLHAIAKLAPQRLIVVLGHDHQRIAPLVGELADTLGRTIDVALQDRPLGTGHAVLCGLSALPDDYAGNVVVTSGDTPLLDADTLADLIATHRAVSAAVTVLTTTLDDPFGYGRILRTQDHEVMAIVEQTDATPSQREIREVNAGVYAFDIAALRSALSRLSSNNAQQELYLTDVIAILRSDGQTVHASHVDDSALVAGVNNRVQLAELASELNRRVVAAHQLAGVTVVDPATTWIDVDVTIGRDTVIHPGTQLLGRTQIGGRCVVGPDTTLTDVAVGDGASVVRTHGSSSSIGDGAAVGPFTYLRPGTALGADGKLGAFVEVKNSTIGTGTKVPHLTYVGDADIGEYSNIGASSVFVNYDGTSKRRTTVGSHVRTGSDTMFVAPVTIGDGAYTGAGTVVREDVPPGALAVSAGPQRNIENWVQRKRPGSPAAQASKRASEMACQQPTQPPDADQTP

T1 sequence (P11940 whole entry): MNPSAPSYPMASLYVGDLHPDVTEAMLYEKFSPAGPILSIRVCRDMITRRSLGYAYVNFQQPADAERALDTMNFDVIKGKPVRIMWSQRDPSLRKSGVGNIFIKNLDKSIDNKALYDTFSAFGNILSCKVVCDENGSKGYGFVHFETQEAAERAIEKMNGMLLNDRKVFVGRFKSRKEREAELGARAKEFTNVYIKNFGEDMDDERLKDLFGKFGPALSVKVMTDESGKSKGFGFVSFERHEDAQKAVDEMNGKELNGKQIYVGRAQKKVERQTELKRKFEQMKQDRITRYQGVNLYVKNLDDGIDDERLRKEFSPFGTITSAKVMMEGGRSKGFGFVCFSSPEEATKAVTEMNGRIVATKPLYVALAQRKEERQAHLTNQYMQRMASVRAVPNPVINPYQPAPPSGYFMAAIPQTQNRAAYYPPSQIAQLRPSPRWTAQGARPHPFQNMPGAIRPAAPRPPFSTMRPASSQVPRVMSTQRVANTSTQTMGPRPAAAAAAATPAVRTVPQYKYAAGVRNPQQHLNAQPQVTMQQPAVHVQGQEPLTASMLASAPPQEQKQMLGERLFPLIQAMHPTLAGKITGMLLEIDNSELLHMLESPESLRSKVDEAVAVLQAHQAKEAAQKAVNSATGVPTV

## CC(=O)Nc1cccc(NC(=O)CSc2ccc(-c3ccco3)nn2)c1
[1]
  IC50: > 100 µM (inactive)
[2]
  IC50: 46.3 µM (active)
[3]
  IC50: 25 µM (active)
[4]
  IC50: 10.3 µM (active)

## Cc1ccc(/C=N/n2c(S)nnc2C2CCCCC2)s1
[5]
  Absolute IC50 (XBP1): 10 µM

## CCN1CCN(S(=O)(=O)c2ccc(Cl)c(C(=O)N(CC)CC(=O)Nc3ccc(OC)cc3)c2)CC1
[1]
  IC50: 4.68 µM (active)
[6]
  IC50: 3.43 µM (active)
[2]
  IC50: 3.26 µM (active)
[7]
  IC50: 3.4 µM (active)
[3]
  IC50: 21 µM (active)
[4]
  IC50: 85.9 µM (active)

## CC(C)CN=C(S)NNC(=O)c1ccc2c(c1)OCO2
[8]
  EC50: 40.7 µM (active)

## Cc1ccc(N=C(N)Nc2nc(C)cc(N3CCCCC3)n2)c(C)c1
[9]
  IC50: 3.34 µM (active)
[10]
  AC50: 5.74 µM (active)
[11]
  IC50: 70.1 µM (active)
[12]
  AC50: 0.891 µM (active)
[13]
  AC50: 0.639 µM (active)
[8]
  EC50: 71.7 µM (not active)
[14]
  IC50: 32.1 µM (active)

## Cc1cc(/C=C2\C(=O)NC(=O)N(Cc3ccccc3)C2=O)c(C)n1-c1ccc(Cl)c(C(=O)O)c1
[15]
  IC50: 3.35 µM (active)
[16]
  AC50: 5.47 µM (active)
[17]
  IC50: 72.7 µM (active)
[18]
  AC50: 35.6 µM (active)
[19]
  AC50: 76.2 µM (active)
[20]
  IC50: 1.02 µM (active)
[21]
  IC50: 71.9 µM (active)
